Assay results published in the supplement of paper PMC10307832.

How the values were obtained:
Assay in all cases: relative viability (nuclei count vs DMSO), 5 days (fraction); higher = more cells survive
MK-2206 + AZD7762 = compound: NC1(c2ccc(-c3nc4ccn5c(=O)[nH]nc5c4cc3-c3ccccc3)cc2)CCC1 [MK-2206] + NC(=O)Nc1cc(-c2cccc(F)c2)sc1C(=O)N[C@H]1CCCNC1 [AZD7762] (partner 0.2 µM)
Summary of the method: (§1)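 After 5 days of treatment, lung cancer cells in 1536-well plates were fixed and stained in a single step (final 0.05% Triton X-100, 1% formaldehyde, 1 ug/ml Hoechst) and their nuclei counted on 4× images. Treatment had been applied by pin tool the day after seeding as one drug alone or as a fixed anchor-drug dose with five library-drug doses (not always all listed) in √10 steps. Relative viability is the nuclei count of treated wells divided by that of vehicle wells, and values are medians of duplicate plates.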

MK-2206 + Trametinib = compound: NC1(c2ccc(-c3nc4ccn5c(=O)[nH]nc5c4cc3-c3ccccc3)cc2)CCC1 [MK-2206] + CC(=O)Nc1cccc(-n2c(=O)n(C3CC3)c(=O)c3c(Nc4ccc(I)cc4F)n(C)c(=O)c(C)c32)c1 [Trametinib] (partner 0.02 µM)
Summary of the method: as §1

MK-2206 + Olaparib = compound: NC1(c2ccc(-c3nc4ccn5c(=O)[nH]nc5c4cc3-c3ccccc3)cc2)CCC1 [MK-2206] + O=C(c1cc(Cc2n[nH]c(=O)c3ccccc23)ccc1F)N1CCN(C(=O)C2CC2)CC1 [Olaparib] (partner 8 µM)
Summary of the method: as §1

Pictilisib + Crizotinib = compound: CS(=O)(=O)N1CCN(Cc2cc3nc(-c4cccc5[nH]ncc45)nc(N4CCOCC4)c3s2)CC1 [Pictilisib] + C[C@@H](Oc1cc(-c2cnn(C3CCNCC3)c2)cnc1N)c1c(Cl)ccc(F)c1Cl [Crizotinib] (partner 1 µM)
Summary of the method: as §1

MK-2206 + Dasatinib = compound: NC1(c2ccc(-c3nc4ccn5c(=O)[nH]nc5c4cc3-c3ccccc3)cc2)CCC1 [MK-2206] + Cc1nc(Nc2ncc(C(=O)Nc3c(C)cccc3Cl)s2)cc(N2CCN(CCO)CC2)n1 [Dasatinib] (partner 0.075 µM)
Summary of the method: as §1

| Cell Line | relative viability (MK-2206 + AZD7762; first compound 0.01 µM) | relative viability (MK-2206 + AZD7762; first compound 0.03162 µM) | relative viability (MK-2206 + AZD7762; first compound 0.3162 µM) | relative viability (MK-2206 + AZD7762; first compound 1 µM) | relative viability (MK-2206 + Trametinib; first compound 0.01 µM) | relative viability (MK-2206 + Trametinib; first compound 0.03162 µM) | relative viability (MK-2206 + Trametinib; first compound 0.3162 µM) | relative viability (MK-2206 + Trametinib; first compound 1 µM) | relative viability (MK-2206 + Olaparib; first compound 0.01 µM) | relative viability (MK-2206 + Olaparib; first compound 0.03162 µM) | relative viability (MK-2206 + Olaparib; first compound 0.3162 µM) | relative viability (MK-2206 + Olaparib; first compound 1 µM) | relative viability (Pictilisib + Crizotinib; first compound 0.02 µM) | relative viability (Pictilisib + Crizotinib; first compound 0.06325 µM) | relative viability (Pictilisib + Crizotinib; first compound 0.6325 µM) | relative viability (Pictilisib + Crizotinib; first compound 2 µM) | relative viability (MK-2206 + Dasatinib; first compound 0.01 µM) | relative viability (MK-2206 + Dasatinib; first compound 0.03162 µM) | relative viability (MK-2206 + Dasatinib; first compound 0.3162 µM) | relative viability (MK-2206 + Dasatinib; first compound 1 µM) |
| --- | --- | --- | --- | --- | --- | --- | --- | --- | --- | --- | --- | --- | --- | --- | --- | --- | --- | --- | --- | --- |
| NCI-H596 | 1.16 | 1.06 | 1.05 | 1.01 | 0.728 | 0.756 | 0.713 | 0.603 | 0.745 | 0.698 | 0.732 | 0.688 | 0.91 | 1.05 | 0.631 | 0.354 | 0.669 | 0.662 | 0.577 | 0.505 |
| NCI-H647 | 0.46 | 0.356 | 0.521 | 0.473 | 0.457 | 0.473 | 0.429 | 0.364 | 0.568 | 0.559 | 0.662 | 0.388 | 1.16 | 1.18 | 0.884 | 0.524 | 0.17 | 0.188 | 0.154 | 0.156 |
| NCI-H650 | 1 | 0.706 | 1.13 | 1 | 0.981 | 0.98 | 1.03 | 0.991 | 0.4 | 0.362 | 0.383 | 0.391 | 0.762 | 0.712 | 0.629 | 0.642 | 0.448 | 0.442 | 0.453 | 0.326 |
| NCI-H727 | 0.563 | 0.485 | 0.58 | 0.575 | 0.402 | 0.382 | 0.388 | 0.37 | 0.696 | 0.674 | 0.716 | 0.675 | 0.934 | 0.912 | 0.76 | 0.401 | 0.408 | 0.328 | 0.394 | 0.433 |
| NCI-H838 | 0.935 | 0.872 | 0.969 | 0.906 | 0.504 | 0.507 | 0.498 | 0.354 | 0.768 | 0.857 | 0.767 | 0.685 | 0.871 | 0.795 | 0.76 | 0.497 | 0.282 | 0.279 | 0.288 | 0.268 |
| NCI-H1355 | 0.664 | 0.557 | 0.681 | 0.6 | 0.407 | 0.414 | 0.363 | 0.378 | 0.767 | 0.829 | 0.672 | 0.761 | 1.1 | 0.983 | 0.876 | 0.606 | 0.734 | 0.7 | 0.701 | 0.432 |
| NCI-H1437 | 1.18 | 1.11 | 1.16 | 1.09 | 0.577 | 0.51 | 0.44 | 0.403 | 0.632 | 0.643 | 0.698 | 0.653 | 0.941 | 0.952 | 1.03 | 0.652 | 0.425 | 0.424 | 0.412 | 0.398 |
| NCI-H1651 | 0.506 | 0.367 | 0.466 | 0.438 | 0.797 | 0.849 | 0.853 | 0.819 | 0.178 | 0.154 | 0.174 | 0.181 | 0.855 | 0.863 | 0.84 | 0.683 | 0.386 | 0.448 | 0.478 | 0.405 |
| NCI-H1666 | 0.808 | 0.858 | 0.962 | 0.806 | 0.925 | 0.79 | 0.807 | 0.892 | 0.702 | 0.794 | 0.802 | 0.774 | 1.07 | 1.05 | 0.815 | 0.491 | 0.751 | 0.838 | 0.818 | 0.744 |
| NCI-H1734 | 0.576 | 0.244 | 0.471 | 0.399 | 0.633 | 0.646 | 0.535 | 0.478 | 0.63 | 0.667 | 0.648 | 0.507 | 0.739 | 0.648 | 0.43 | 0.296 | 0.501 | 0.449 | 0.408 | 0.387 |
| NCI-H1755 | 0.508 | 0.328 | 0.458 | 0.432 | 0.756 | 0.768 | 0.671 | 0.699 | 0.875 | 0.929 | 0.901 | 0.825 | 0.848 | 0.829 | 0.827 | 0.546 | 0.443 | 0.424 | 0.406 | 0.35 |
| NCI-H1792 | 0.613 | 0.702 | 0.529 | 0.293 | 0.363 | 0.395 | 0.365 | 0.296 | 0.497 | 0.514 | 0.532 | 0.264 | 0.916 | 0.925 | 0.772 | 0.425 | 0.758 | 0.845 | 0.913 | 0.819 |
| NCI-H1915 | 0.74 | 0.573 | 0.735 | 0.576 | 0.3 | 0.315 | 0.282 | 0.293 | 0.238 | 0.246 | 0.257 | 0.254 | 0.855 | 1 | 0.889 | 0.898 | 0.348 | 0.329 | 0.348 | 0.271 |
| NCI-H1944 | 0.539 | 0.254 | 0.472 | 0.5 | 0.405 | 0.41 | 0.392 | 0.385 | 0.388 | 0.439 | 0.429 | 0.478 | 1.11 | 0.962 | 0.933 | 0.603 | 0.243 | 0.227 | 0.198 | 0.182 |
| NCI-H1975 | 0.745 | 0.748 | 0.595 | 0.582 | 0.305 | 0.352 | 0.261 | 0.371 | 0.705 | 0.782 | 0.764 | 0.663 | 0.915 | 0.9 | 0.713 | 0.307 | 0.4 | 0.346 | 0.292 | 0.341 |
| NCI-H1993 | 0.804 | 0.864 | 0.483 | 0.475 | 0.61 | 0.422 | 0.43 | 0.419 | 0.941 | 1.05 | 0.99 | 0.652 | 0.766 | 0.691 | 0.726 | 0.638 | 0.29 | 0.524 | 0.556 | 0.51 |
| NCI-H2085 | 0.85 | 0.954 | 0.918 | 0.769 | 0.527 | 0.52 | 0.292 | 0.36 | 0.778 | 0.858 | 0.786 | 0.732 | 0.887 | 0.994 | 0.747 | 0.394 | 0.257 | 0.234 | 0.253 | 0.242 |
| NCI-H2087 | 0.809 | 1.34 | 1.4 | 1.33 | 0.246 | 0.211 | 0.176 | 0.133 | 0.641 | 0.552 | 0.592 | 0.51 | 0.912 | 0.828 | 1.03 | 0.985 | 0.71 | 0.962 | 0.918 | 0.775 |
| NCI-H2126 | 0.971 | 0.96 | 0.94 | 0.996 | 0.559 | 0.543 | 0.515 | 0.455 | 0.932 | 1.01 | 0.87 | 0.925 | 0.998 | 0.988 | 0.972 | 0.688 | 0.686 | 0.625 | 0.5 | 0.476 |
| NCI-H2170 | 0.874 | 0.765 | 0.812 | 0.837 | 0.943 | 0.898 | 0.878 | 0.87 | 0.617 | 0.585 | 0.597 | 0.558 | 1.19 | 1.09 | 0.973 | 0.617 | 0.611 | 0.504 | 0.625 | 0.559 |
| NCI-H2347 | 0.778 | 0.652 | 0.649 | 0.636 | 0.325 | 0.262 | 0.284 | 0.263 | 0.618 | 0.541 | 0.58 | 0.503 | 0.695 | 0.496 | 0.592 | 0.545 | 0.381 | 0.315 | 0.281 | 0.254 |
| NCI-H2405 | 0.824 | 0.769 | 0.838 | 0.534 | 0.697 | 0.682 | 0.668 | 0.533 | 0.837 | 0.899 | 0.875 | 0.825 | 0.884 | 0.854 | 0.745 | 0.558 | 0.208 | 0.241 | 0.182 | 0.231 |
| NCI-H3122 | 0.936 | 1.04 | 0.979 | 0.91 | 0.237 | 0.234 | 0.198 | 0.211 | 0.681 | 0.687 | 0.656 | 0.63 | 0.258 | 0.253 | 0.194 | 0.186 | 0.801 | 0.789 | 0.84 | 0.118 |
| PC-3 [JPC-3] | 0.881 | 0.849 | 0.774 | 0.334 | 0.686 | 0.804 | 0.599 | 0.735 | 1.09 | 1.12 | 1.18 | 1.12 | 0.983 | 0.969 | 1.03 | 0.905 | 0.968 | 1.01 | 1.06 | 0.934 |
| PC-14 | 0.326 | 0.243 | 0.329 | 0.366 | 0.557 | 0.876 | 0.516 | 0.704 | 0.274 | 0.313 | 0.371 | 0.354 | 0.909 | 0.928 | 0.926 | 0.681 | 0.289 | 0.346 | 0.27 | 0.294 |
| RERF-LC-KJ | 0.915 | 1.15 | 0.84 | 1.01 | 0.808 | 0.903 | 0.725 | 0.718 | 0.885 | 0.93 | 0.874 | 0.81 | 0.845 | 0.875 | 0.816 | 0.635 | 0.788 | 0.796 | 0.607 | 0.626 |
